{"source": "patent US8951527B2", "about": "“Radioprotectants targeting thrombospondin-1 and CD47” (The United States of America, as represented by the …, priority 2008, dated 2015)", "key": {"HUVEC [1]": {"system": "HUVEC", "experiment": "HUVEC cell viability after irradiation (MTT / CellTiter 96)", "assay_type": "cell-based, human", "settings": "for cell viability after graded doses of peptide and radiation: peptide 1 hour before 0, 10, 20, 30, 40 Gray, 72 hours (FIG. 12); for survival / cell death of irradiated HUVEC (MTT): 40 Gy or no radiation, 48 hours post radiation (FIG. 22)", "procedure": "FIG. 11. Radioprotective activities of TSP1 and CD47 antibodies, a CD47 binding peptide from TSP1, and a CD47 morpholino. HUVEC were plated on 96-well plates in standard growth medium. Cells were treated with TSP1 (FIG. 11A) or CD47 (FIG. 11B) monoclonal antibodies (clone A6.1 or B6H12, respectively) and received the indicated doses of radiation 24 hours after addition of the antibodies. Cell (mitochondrial) viability was measured 48 hours post irradiation using an MTT assay. Cells were treated using peptide 7N3 (FIG. 11C) and control peptide 604 (FIG. 11D), subjected to the same experimental conditions, and assayed via MTT. […] Experiments were repeated 3 times and results presented as the mean±SD.\n(§1) FIG. 12. Peptides 7N3 and C6d are radioprotective to HUVEC in culture. Human umbilical vein endothelial cells (HUVEC) grown in EGM medium in 96-well plates were treated with graded doses of a peptide agent, as indicated. One hour later, cells were exposed to a single dose of gamma radiation (0, 10, 20, 30, and 40 Gray) and allowed to incubate 72 hours at 37° C. Cell viability was determined with the CellTiter 96 AQueous One Solution Cell Proliferation Assay.\n(§2) Cell Viability Assay. HUVEC were plated at a density of 5000 cells/well in 96 well plates (Nunc), and were treated 24 hours later with either the indicated doses of a CD47 antibody (B6H12), a TSP1 antibody (A6.1), the CD47-binding peptide 7N3, or control peptide 604. One hour later the cells were exposed to a single dose of gamma radiation (0, 10, 20, 30, and 40 Gy) and allowed to incubate another 72 hours at 37° C. Experiments done with B16E10 melanoma cells in Example 4 were done in a similar manner treating either 1 hour prior to a single dose of radiation (10 Gy) with peptide 7N3 or 48 hours prior with CD47 morpholino. Cell viability was determined using the CellTiter 96 Aqueous One Solution cell proliferation assay (Promega, Madison, Wis.) as per the manufacturer's instructions and absorbance at 490 nm was determined using an MR580 Microelisa AutoReader (Dynatech, Alexandria, Va.). The same assay was performed on HUVEC using either the CD47 or CD36 morpholino, but 48 hours were allowed to pass prior to radiation (0 or 40 Gy) to allow for suppression of the target proteins. Similarly, control experiments were performed using the nitric oxide synthase (NOS) inhibitor L-NAME, a membrane permeable cGMP analogue, 8-Bromo cGMP, or the NO donor DETA/NO.\nas §1, with “In an additional experiment to test the effect of” for “FIG. 12. Peptides 7N3 and C6d are”, “peptides, human” for “to HUVEC in culture. Human”"}, "HAVSMC": {"system": "HAVSMC", "experiment": "HAVSMC cell viability after irradiation (CellTiter 96)", "assay_type": "cell-based, human", "settings": "greater doses of radiation (FIG. 13)", "procedure": "FIG. 13. Peptide 7N3 is radioprotective to HAVSMC in culture. Human aortic vascular smooth muscle cells (HAVSMC) were also subjected to the CellTiter 96 Aqueous One Solution cell proliferation assay (Promega, Madison, Wis.).\nas §2, with “Similarly, control experiments were performed using the nitric oxide synthase (NOS) inhibitor L-NAME, a membrane permeable cGMP analogue, 8-Bromo cGMP, or the NO donor DETA/NO.” left out"}, "B16F10 melanoma cells": {"system": "B16F10 melanoma cells", "experiment": "B16F10 melanoma cell viability after irradiation in vitro", "assay_type": "cell-based, mouse", "settings": "7N3 1 hour or morpholino 48 hours before 10 Gy, versus untreated cells", "procedure": "FIG. 19. CD47 suppression enhances re-growth delay in irradiated syngeneic B16 melanoma and squamous cell carcinoma tumors but increases radioresistance of B16 cells in vitro. C57BL/6 mice were injected with 1×10^6 B16 mouse melanoma cells into their right hindlimbs. Five days later, the mice were randomized into 4 groups (12 mice in each group) where they either received injections of CD47 morpholino (10 μM) in sterile PBS, PBS, or no injection. The two groups receiving injections were then subjected to radiation (10 Gy) to the effected hindlimb 48 hours later. The other two groups served as controls and consisted of tumor alone or tumor subjected to only the morpholino. Tumors were followed post-radiation for 30 days, measuring their volume every 6 days (FIG. 19A). […] Cell (mitochondrial) viability was measured 48 hours post radiation using the MTT assay.\nCell Viability Assay. […] Cell viability was determined using the CellTiter 96 Aqueous One Solution cell proliferation assay (Promega, Madison, Wis.) as per the manufacturer's instructions and absorbance at 490 nm was determined using an MR580 Microelisa AutoReader (Dynatech, Alexandria, Va.). […]\nIrradiation of cells. […] The dose rate at 50 cm from the x-ray source was 242 cGy/minute, as determined by multiple thermo luminescent dosimeter readings."}, "HUVEC [2]": {"system": "HUVEC", "experiment": "HUVEC proliferation post-radiation (BrdU incorporation)", "assay_type": "cell-based, human", "settings": "treated 48 hours before 10 Gy, over 1 week (FIG. 14)", "procedure": "FIG. 14. TSP1 and CD47 antibodies or antisense suppression of CD47 maintain proliferation of irradiated HUVEC. HUVEC were plated in 96-well plates in growth medium and treated with CD47 morpholino (FIG. 14A; *p<0.05, #p<0.01) TSP1, or CD47 antibodies (FIG. 14B; *p<0.05, #p<0.01) and exposed to 10 Gy irradiation 48 hours later. Cell proliferation at the indicated times post-radiation was determined by intracellular BrdU incorporation. Experiments were repeated 3 times, and results presented as the mean±SD.\nFIG. 15. HUVEC protected by radioprotective agents are both viable and proliferate at a better rate than untreated cells in culture. Proliferation was assessed by quantifying incorporation of bromodeoxyuridine (BrdU) into newly synthesized DNA using a BrdU Cell Proliferation Assay. HUVEC were seeded into 96 well plates for 24 hours at 37° C., then treated with either antibody A6.1 or B6H12 or peptide 7N3. The treated cells were irradiated at 40 Gy 1 hour later. Control and irradiated plates were assayed for BrdU uptake over 96 hours post-radiation. The assay was performed according to the manufacturer's protocol, and the plates were read at 420 nm.\nCell proliferation assay: Proliferation was assessed by quantifying incorporation of bromodeoxyuridine (BrdU) into newly synthesized DNA using a BrdU Cell Proliferation Assay (Calbiochem, La Jolla, Calif.). Primary murine wild type, TSP1, TSP2, and CD47 null lung endothelial cells were seeded into 96 well plates at 5×10^4 cells/well density. After 24 hours incubation at 37° C. treatment groups were irradiated at 40 Gy. Control and irradiated plates were assayed for BrdU uptake over 24 hours starting at 48 to 168 hours post-radiation. The assay was performed according to the manufacturer's protocol, and the plates were read at 420 nm.\nProliferative capacities were also determined in endothelial cells exposed to high doses of radiation of 40 Gy. […] The assay was performed according to the manufacturer's protocol, and the plates were read at 420 nm."}, "C57BL/6 wild type mice": {"system": "C57BL/6 wild type mice", "experiment": "Hindlimb irradiation (25 Gy), skin reaction / tissue necrosis grading and histology", "assay_type": "in vivo, mouse", "settings": "10 μM in 750 μl PBS local-regional, 48 hours before 25 Gy, 8 weeks", "procedure": "FIG. 16. CD47 suppression using an antisense morpholino minimizes tissue damage from radiation injury. Age and sex matched C57BL16 wild type mice underwent a one-time treatment of the right hindlimb with either a murine specific CD47 morpholino oligonucleotide (10 μM in 750 μl PBS) or 750 μl of PBS injected local-regionally to the muscle and soft tissues. […] At the end of 8 weeks, there was a considerable amount of alopecia, dry desquamation and early signs of fibrotic contractures within the irradiated hind limbs of mice receiving only PBS. […] The tissue necrosis grading scores for 8 animals are presented as mean±SD (FIG. 16B) and show a similar trend throughout the 8-week observation period.\nSkin reaction: Skin reaction following hind limb irradiation was quantified every week following treatment for 8 weeks using a previously described grading system (Flanders et al., Am J Pathol 163:2247-2257, 2003). The grading system consisted of 5 categories: normal, hair loss, erythema, dry desquamation and moist desquamation/ulceration.\nIrradiation of mice: Age and sex matched wild type mice underwent local irradiation to the right hindlimb as described in Example 1. Forty-eight hours prior to irradiation, animals received the CD47 morpholino (SEQ ID NO: 4), a control morpholino (SEQ ID NO: 5) (both at 10 μM in […] PBS via intramuscular injection), vehicle, or no treatment to the hind limb. Under 1% isoflurane inhalation anesthesia, the animals were placed in customized Lucite jigs that allow for immobilization and selective irradiation of the right hindlimb. A single radiation dose of 25 Gy was delivered by a Therapax® DXT300 X-ray irradiator (Pantak, Inc., East Haven, Conn.) using 2.0-mm A1 filtration (300 kVp) at a dose rate of 2.53 Gy/min. Care was taken to avoid irradiation of other body parts by using lead shields specifically designed as a part of the jigs. After irradiation, the animals were placed in cages as indicated above and observed weekly. Skin reaction after hind limb irradiation was quantified every week after treatment for 8 weeks using a previously described grading system (Flanders et al., Am J. Pathol 163:2247-2257, 2003). Briefly, tissue necrosis grading system consists of 5 categories: normal, hair loss, erythema, dry desquamation, and moist desquamation/ulceration.\nAge and sex matched C57BL16 wild type mice underwent a one-time treatment of the right hindlimb with the CD47 antisense morpholino oligonucleotide (10 μM in 750 μl PBS), a mismatched control morpholino, or vehicle (PBS) injected local-regionally to the muscle and soft tissues."}}, "note": "Entries after “also recorded” stand apart in the source; their conditions may differ.", "data": [{"compound": "FIRVVMYEGKK [7N3]", "values": [{"measurement": "cell (mitochondrial) viability post irradiation", "setting": "HUVEC [1]; antibody or peptide before radiation, 0-40 Gy (FIG. 11A-D)", "value": "enhanced cell survival post-irradiation"}, {"measurement": "cell viability after graded doses of peptide and radiation", "setting": "HUVEC [1]", "value": "protective effect"}, {"measurement": "cell viability after radiation", "setting": "HAVSMC", "value": "profound radioprotective protective effect"}, {"measurement": "cell viability after 10 Gy", "setting": "B16F10 melanoma cells", "value": "mild radioprotective effect"}]}, {"compound": "control morpholino: mismatched control morpholino from GeneTools (CGTGACAGCCACGACCGACTGCGCA; all phosphorodiamidate morpholino (PMO)) [reference compound]", "values": [{"measurement": "proliferation (BrdU incorporation / DNA synthesis) after 10 Gy", "setting": "HUVEC [2]", "value": "not"}, {"measurement": "skin reaction / tissue damage of irradiated hindlimb", "setting": "C57BL/6 wild type mice", "value": "significant alopecia, dry and wet desquamation, and tissue ulceration with fibrous contracture"}]}, {"compound": "FIRGGMYEGKK [compound 604, control peptide, reference compound]", "values": [{"measurement": "cell viability after graded doses of peptide and radiation", "setting": "HUVEC [1]", "value": "virtually no protection"}]}, {"compound": "CD36 morpholino: antisense morpholino specific for the TSP1 receptor CD36 (antisense ATGGGCTGTGACCGGAACTGTGGGC; all phosphorodiamidate morpholino (PMO)) [reference compound]", "values": [{"measurement": "cell viability post radiation after morpholino pretreatment", "setting": "HUVEC [1]; morpholino 48 hours before radiation (FIG. 11E, F)", "value": "no radioprotection; also recorded: decrease in cellular viability similar to that of untreated cells"}, {"measurement": "proliferation (BrdU incorporation / DNA synthesis) after 10 Gy", "setting": "HUVEC [2]", "value": "not seen"}]}, {"compound": "HIGWKDFTAYRWRLS [C6d, radioprotective peptide]", "values": [{"measurement": "cell viability after graded doses of peptide and radiation", "setting": "HUVEC [1]", "value": "protective effect"}]}, {"compound": "Nc1nc2c(nc(Br)n2[C@@H]2O[C@@H]3COP(=O)(O)O[C@H]3[C@H]2O)c(=O)[nH]1", "note": "[cell permeable cGMP analog, 8-Bromo cyclic guanine monophosphate, reference compound]", "values": [{"measurement": "survival / cell death of irradiated HUVEC (MTT)", "setting": "HUVEC [1]", "value": "did not confer a significant survival advantage"}]}, {"compound": "NCCN(CCN)/[N+]([O-])=N/O", "note": "[DETA/NO, reference compound]", "values": [{"measurement": "survival / cell death of irradiated HUVEC (MTT)", "setting": "HUVEC [1]", "value": "did not confer a significant survival advantage"}]}]}
